For this assay, the target named is T1, human CRHR2 (Homo sapiens, UniProt Q13324).
T1 construct: expressed in transfected cells
T1 sequence (Q13324 1-411): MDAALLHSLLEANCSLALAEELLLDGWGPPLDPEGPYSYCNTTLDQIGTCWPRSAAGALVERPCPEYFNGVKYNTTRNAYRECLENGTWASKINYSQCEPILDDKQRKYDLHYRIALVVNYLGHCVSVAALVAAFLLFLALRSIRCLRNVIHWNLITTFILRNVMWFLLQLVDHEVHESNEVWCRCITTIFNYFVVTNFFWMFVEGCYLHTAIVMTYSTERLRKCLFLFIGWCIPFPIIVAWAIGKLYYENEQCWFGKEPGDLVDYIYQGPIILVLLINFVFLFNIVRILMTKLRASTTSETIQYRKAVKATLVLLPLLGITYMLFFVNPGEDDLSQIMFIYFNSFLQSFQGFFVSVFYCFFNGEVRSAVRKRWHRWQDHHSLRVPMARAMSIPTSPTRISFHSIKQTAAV
As to the kind of experiment: cAMP assay, h-CRHR2 transfected SK-N-MC cells. Particulars: for EC50: read-out: pA50 (converted); for Log DR [M]: h-SCP control pA50 minus test compound pA50 within the same assay batch. It counts as cell-based. In outline:
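SK-N-MC cells stably expressing human CRHR2 were treated with peptides (1 pM to 1 μM) for 60 min at 37 °C in IBMX-containing medium, with 10 μM forskolin as positive control. Cells were lysed with 0.5 M HCl and cAMP measured by [125I]-cAMP competition flash plate. A50 came from Hill-equation fits, normalised to h-SCP maximum.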
For orientation: cAMP levels reflect the balance of adenylyl cyclase and phosphodiesterase activity.

Setting [1] is: Table 13, cysteine mutation, N-ethylmaleimide capping, pegylation.

Where two headings read alike, the source gives them in different places. Where a SMILES comes first, the peptide text is derived from it. Where no end group is shown, it is not given here. The star is where a group is joined. Succinimide(1-Et,3-yl) = CCN1C(=O)CC(*)C1=O

`CC[C@H](C)[C@H](NC(=O)[C@H](CCC(N)=O)NC(=O)[C@H](C)NC(=O)[C@H](CCSC)NC(=O)[C@H](CC(C)C)NC(=O)[C@H](Cc1c[nH]cn1)NC(=O)[C@H](C)NC(=O)[C@H](CC(N)=O)NC(=O)[C@H](C)NC(=O)[C@H](C)NC(=O)[C@H](C)NC(=O)[C@H](CCC(N)=O)NC(=O)[C@H](C)NC(=O)[C@H](CCCNC(=N)N)NC(=O)[C@H](CC(C)C)NC(=O)[C@H](CC(N)=O)NC(=O)[C@H](CCCCN)NC(=O)[C@H](C)NC(=O)[C@H](CCCCN)NC(=O)[C@H](C)NC(=O)[C@@H](NC(=O)[C@H](CSC1CC(=O)N(CC)C1=O)NC(=O)[C@H](Cc1ccccc1)NC(=O)[C@H](CC(C)C)NC(=O)[C@H](CC(C)C)NC(=O)[C@H](CC(N)=O)NC(=O)[C@H](CCSC)NC(=O)[C@@H](NC(=O)[C@H](CC(N)=O)NC(=O)[C@@H](NC(=O)[C@@H]1CCCN1C(=O)[C@@H](NC(=O)[C@H](CC(=O)O)NC(=O)[C@H](CC(C)C)NC(=O)[C@H](CO)NC(=O)[C@H](CC(C)C)NC(=O)[C@@H](NC(=O)[C@H](Cc1ccccc1)NC(=O)[C@H](CCCCN)NC(=O)[C@@H](N)[C@@H](C)O)[C@@H](C)O)C(C)C)[C@@H](C)O)[C@@H](C)CC)[C@@H](C)CC)C(N)=O` (stereo partly shown) [SEQ ID NO: 52, TKFTL SLDVP TNIMN LLFC(-NES)I AKAKN LRAQA AANAH LMAQI-NH2] (H-TKFTLSLDVPTNIMNLLFC(Succinimide(1-Et,3-yl))IAKAKNLRAQAAANAHLMAQI-NH2; N-terminus assumed): the EC50 under setting [1] was 0.38 nM. Under “Table 13”, the “Log DR [M]” value was 0.05.

Take `CC[C@H](C)[C@H](NC(=O)[C@H](CCC(N)=O)NC(=O)[C@H](C)NC(=O)[C@H](CCSC)NC(=O)[C@H](CC(C)C)NC(=O)[C@H](Cc1c[nH]cn1)NC(=O)[C@H](C)NC(=O)[C@H](CC(N)=O)NC(=O)[C@H](C)NC(=O)[C@H](C)NC(=O)[C@H](C)NC(=O)[C@H](CCC(N)=O)NC(=O)[C@H](C)NC(=O)[C@H](CCCNC(=N)N)NC(=O)[C@H](CSC1CC(=O)N(CC)C1=O)NC(=O)[C@H](CC(N)=O)NC(=O)[C@H](CCCCN)NC(=O)[C@H](C)NC(=O)[C@H](CCCCN)NC(=O)[C@H](C)NC(=O)[C@@H](NC(=O)[C@H](CC(N)=O)NC(=O)[C@H](Cc1ccccc1)NC(=O)[C@H](CC(C)C)NC(=O)[C@H](CC(C)C)NC(=O)[C@H](CC(N)=O)NC(=O)[C@H](CCSC)NC(=O)[C@@H](NC(=O)[C@H](CC(N)=O)NC(=O)[C@@H](NC(=O)[C@@H]1CCCN1C(=O)[C@@H](NC(=O)[C@H](CC(=O)O)NC(=O)[C@H](CC(C)C)NC(=O)[C@H](CO)NC(=O)[C@H](CC(C)C)NC(=O)[C@@H](NC(=O)[C@H](Cc1ccccc1)NC(=O)[C@H](CCCCN)NC(=O)[C@@H](N)[C@@H](C)O)[C@@H](C)O)C(C)C)[C@@H](C)O)[C@@H](C)CC)[C@@H](C)CC)C(N)=O` (stereo partly shown) [SEQ ID NO: 48, TKFTLSLDVPTNIMNLLFNIAKAKNC(-NES)RAQA AANAH LMAQI-NH2] (H-TKFTLSLDVPTNIMNLLFNIAKAKNC(Succinimide(1-Et,3-yl))RAQAAANAHLMAQI-NH2; N-terminus assumed): under setting [1], the EC50 is 0.363 nM. Moreover, the “Log DR [M]” value (Table 13) is recorded as 0.03.

Regarding “TCFTLSLDVPTNIMNLLFNIAKAKNLRAQAAANAHLMAQI-NH2 [SEQ ID NO: 3, TCFTLSLDVPTNIMNLLFNIAKAKNLRAQAAANAHLMAQI-NH2]”, under setting [1], the EC50 was 1.07 nM. The “Log DR [M]” value (Table 13) is 0.72.

As for “H-TKFTLSLDVPTNIMNLLFNIAKAKNLRAQAAANCHLMAQI-NH2 [SEQ ID NO: 35, TKFTLSLDVPTNIMNLLFNIAKAKNLRAQAAANCHLMAQI-NH2]”, under setting [1], the EC50 is 1.17 nM. Also, the “Log DR [M]” value (Table 13) is reported as 0.70.

As for `CC[C@H](C)[C@H](NC(=O)[C@H](CCC(N)=O)NC(=O)[C@H](C)NC(=O)[C@H](CCSC)NC(=O)[C@H](CC(C)C)NC(=O)[C@H](Cc1c[nH]cn1)NC(=O)[C@H](C)NC(=O)[C@H](CC(N)=O)NC(=O)[C@H](C)NC(=O)[C@H](C)NC(=O)[C@H](C)NC(=O)[C@H](CCC(N)=O)NC(=O)[C@H](C)NC(=O)[C@H](CCCNC(=N)N)NC(=O)[C@H](CC(C)C)NC(=O)[C@H](CC(N)=O)NC(=O)[C@H](CCCCN)NC(=O)[C@H](C)NC(=O)[C@H](CCCCN)NC(=O)[C@H](C)NC(=O)[C@@H](NC(=O)[C@H](CC(N)=O)NC(=O)[C@H](Cc1ccccc1)NC(=O)[C@H](CC(C)C)NC(=O)[C@H](CSC1CC(=O)N(CC)C1=O)NC(=O)[C@H](CC(N)=O)NC(=O)[C@H](CCSC)NC(=O)[C@@H](NC(=O)[C@H](CC(N)=O)NC(=O)[C@@H](NC(=O)[C@@H]1CCCN1C(=O)[C@@H](NC(=O)[C@H](CC(=O)O)NC(=O)[C@H](CC(C)C)NC(=O)[C@H](CO)NC(=O)[C@H](CC(C)C)NC(=O)[C@@H](NC(=O)[C@H](Cc1ccccc1)NC(=O)[C@H](CCCCN)NC(=O)[C@@H](N)[C@@H](C)O)[C@@H](C)O)C(C)C)[C@@H](C)O)[C@@H](C)CC)[C@@H](C)CC)C(N)=O` (stereo partly shown) [SEQ ID NO: 54, TKFTL SLDVP TNIMN C(-NES)LFNI AKAKN LRAQA AANAH LMAQI-NH2] (H-TKFTLSLDVPTNIMNC(Succinimide(1-Et,3-yl))LFNIAKAKNLRAQAAANAHLMAQI-NH2; N-terminus assumed), the EC50 under setting [1] is 0.282 nM. Also, the “Log DR [M]” value (Table 13) is recorded as −0.08.

Compound “TLSLDVPTNIMNLLFNIAKAKNLRAQAAANAHLMAQI-NH2 [SEQ ID NO: 108, TLSLDVPTNIMNLLFNIAKAKNLRAQAAANAHLMAQI-NH2]” came in with a nH (Table 12) of 0.82. In addition, the EC50 (Table 12, amidation and N-terminal deletions, normalized to maximum response to h-SCP, 3-5 replicate experiments) is 3.24 nM. This compound also registered a αmax (Table 12, normalized to the maximum response to h-SCP) of 106.3.

As for “TKFTLSLDVPTNIMNLLFNIACAKNLRAQAAANAHLMAQI-NH2 [SEQ ID NO: 23, TKFTLSLDVPTNIMNLLFNIACAKNLRAQAAANAHLMAQI-NH2]”, the EC50 under setting [1] was 2.82 nM. The “Log DR [M]” value (Table 13) came to 1.13.

On to `CC[C@H](C)[C@H](NC(=O)[C@H](CCC(N)=O)NC(=O)[C@H](C)NC(=O)[C@H](CCSC)NC(=O)[C@H](CC(C)C)NC(=O)[C@H](Cc1c[nH]cn1)NC(=O)[C@H](C)NC(=O)[C@H](CC(N)=O)NC(=O)[C@H](C)NC(=O)[C@H](C)NC(=O)[C@H](C)NC(=O)[C@H](CCC(N)=O)NC(=O)[C@H](C)NC(=O)[C@H](CCCNC(=N)N)NC(=O)[C@H](CC(C)C)NC(=O)[C@H](CSC1CC(=O)N(CC)C1=O)NC(=O)[C@H](CCCCN)NC(=O)[C@H](C)NC(=O)[C@H](CCCCN)NC(=O)[C@H](C)NC(=O)[C@@H](NC(=O)[C@H](CC(N)=O)NC(=O)[C@H](Cc1ccccc1)NC(=O)[C@H](CC(C)C)NC(=O)[C@H](CC(C)C)NC(=O)[C@H](CC(N)=O)NC(=O)[C@H](CCSC)NC(=O)[C@@H](NC(=O)[C@H](CC(N)=O)NC(=O)[C@@H](NC(=O)[C@@H]1CCCN1C(=O)[C@@H](NC(=O)[C@H](CC(=O)O)NC(=O)[C@H](CC(C)C)NC(=O)[C@H](CO)NC(=O)[C@H](CC(C)C)NC(=O)[C@@H](NC(=O)[C@H](Cc1ccccc1)NC(=O)[C@H](CCCCN)NC(=O)[C@@H](N)[C@@H](C)O)[C@@H](C)O)C(C)C)[C@@H](C)O)[C@@H](C)CC)[C@@H](C)CC)C(N)=O` (stereo partly shown) [SEQ ID NO: 49, TKFTLSLDVPTNIMNLLFNIAKAKC(-NES) LRAQA AANAH LMAQI-NH2] (H-TKFTLSLDVPTNIMNLLFNIAKAKC(Succinimide(1-Et,3-yl))LRAQAAANAHLMAQI-NH2; N-terminus assumed), for which the EC50 under setting [1] is 0.437 nM. For the setting “Table 13”, the “Log DR [M]” value was 0.11.

Regarding `CC[C@H](C)[C@H](NC(=O)[C@H](CCC(N)=O)NC(=O)[C@H](C)NC(=O)[C@H](CCSC)NC(=O)[C@H](CC(C)C)NC(=O)[C@H](Cc1c[nH]cn1)NC(=O)[C@H](C)NC(=O)[C@H](CC(N)=O)NC(=O)[C@H](C)NC(=O)[C@H](C)NC(=O)[C@H](C)NC(=O)[C@H](CCC(N)=O)NC(=O)[C@H](C)NC(=O)[C@H](CCCNC(=N)N)NC(=O)[C@H](CC(C)C)NC(=O)[C@H](CC(N)=O)NC(=O)[C@H](CSC1CC(=O)N(CC)C1=O)NC(=O)[C@H](C)NC(=O)[C@H](CCCCN)NC(=O)[C@H](C)NC(=O)[C@@H](NC(=O)[C@H](CC(N)=O)NC(=O)[C@H](Cc1ccccc1)NC(=O)[C@H](CC(C)C)NC(=O)[C@H](CC(C)C)NC(=O)[C@H](CC(N)=O)NC(=O)[C@H](CCSC)NC(=O)[C@@H](NC(=O)[C@H](CC(N)=O)NC(=O)[C@@H](NC(=O)[C@@H]1CCCN1C(=O)[C@@H](NC(=O)[C@H](CC(=O)O)NC(=O)[C@H](CC(C)C)NC(=O)[C@H](CO)NC(=O)[C@H](CC(C)C)NC(=O)[C@@H](NC(=O)[C@H](Cc1ccccc1)NC(=O)[C@H](CCCCN)NC(=O)[C@@H](N)[C@@H](C)O)[C@@H](C)O)C(C)C)[C@@H](C)O)[C@@H](C)CC)[C@@H](C)CC)C(N)=O` (stereo partly shown) [SEQ ID NO: 50, TKFTLSLDVPTNIMNLLFNIAKAC(-NES)N LRAQA AANAH LMAQI-NH2] (H-TKFTLSLDVPTNIMNLLFNIAKAC(Succinimide(1-Et,3-yl))NLRAQAAANAHLMAQI-NH2; N-terminus assumed), under setting [1], the EC50 was 0.331 nM. In addition, the “Log DR [M]” value (Table 13) is given as −0.01.

(Values after patent US20110105397A1, “METHOD FOR TREATING HEART FAILURE WITH STRESSCOPIN-LIKE PEPTIDES” (priority 2009, published 2011).)
